In patent US8063225B2, “Tricyclic compound derivatives useful in the treatment of neoplastic diseases, inflammatory disorders and immunomodulatory disorders” (Chembridge Corporation, priority 2006, dated 2011):

Legend:
[1] = molecular target: T1, TrkA (Homo sapiens, UniProt P04629); experiment: Tyrosine kinase assay (Kinase-Glo or AlphaScreen), TrkA; settings: biochemical tyrosine kinase assay
T1 construct: 6×His- or GST-tagged kinase domain fragments of the corresponding RTKs expressed in baculovirus system; host or cells: baculovirus system
Experimental: To determine inhibition of several tyrosine kinases, such as IGF1R, InsR, Alk, TrkA and Jak2, kinase assays are conducted using either Kinase-Glo (Promega) or AlphaScreen (PerkinElmer) kinase assay platforms. The Kinase-Glo Luminescent Kinase Assay is a homogeneous method for measuring kinase activity by determining the amount of ATP remaining after a kinase reaction. The luminescent signal is proportional to the amount of ATP and inversely proportional to the amount of kinase activity. Tyrosine kinase PT66 AlphaScreen Assay is a high-sensitivity homogeneous, anti-phosphotyrosine antibody-mediated luminescent proximity method measuring, incorporation of phosphate in synthetic poly(Glu-Tyr) substrate. The kinase preparations used consist of purified recombinant, 6×His- or GST-tagged kinase domain fragments of the corresponding RTKs expressed in baculovirus system.
The IGF1R tyrosine kinase is assayed in Kinase-Glo ATP depletion assay using the synthetic polymer poly(Glu-Tyr, 4:1) (Sigma Chemicals) as a phosphoacceptor substrate. Each reaction mixture consists of a total volume of 10 μl and contains 40 ng of the enzyme, 5 μg of poly(Glu-Tyr), 10 μM of ATP and variable concentrations of test compounds. The mixtures also contain 50 mM Tris-HCl, pH 7.5; 5 mM MgCl2; 5 mM MnCl2; 2 mM DTT and 0.01% Tween 20. The reaction mixtures are incubated at 37° C. for 60 minutes and residual concentration of ATP in the mixture is determined by adding luciferase-containing Kinase-Glo (Promega) development reagent and counting luminescence levels using Fusion Universal Microplate Analyzer (PerkinElmer). Tested compounds are dissolved in dimethyl sulfoxide to a stock concentration of 10 mM and are typically evaluated in the assay at eight concentrations in 1 nM to 20 μM range, each in quadruplicate. […] IC50 values are derived by non-linear regression analysis using Prism 3.0 software (Graphpad Software). Other tyrosine kinases are assayed according to the same protocol after titrating amount of the enzyme to provide optimal signal-to-noise ratio and no more than 30% of total ATP consumption in the reaction conditions used.
The IGF1R tyrosine kinase is assayed in Phosphotyrosine (PT66 or PT 100) AlphaScreen chemiluminescent assay (PerkinElmer) according to the manufacturerer's recommendations. Each kinase reaction mixture consists of a total volume of 15 μl and contains 0.1-1 ng of the enzyme, 7 ng of biotinylated poly(Glu-Tyr) (Cis-Bio), 10 μM of ATP and variable concentrations of test compounds. The mixtures also contain 50 mM Tris-HCl, pH 7.5; 5 mM MgCl2; 5 mM MnCl2; 2 mM DTT and 0.01% Tween 20. The reaction mixtures are incubated at room temperature for 30 minutes. Ten (10) μl of the mixture of […] and donor beads (as supplied by the manufacturer) is then added to the reaction and the incubation is continued for an additional 60 minutes.

[2] = molecular target: T2, Alk (Homo sapiens, UniProt Q9UM73); experiment: Tyrosine kinase assay (Kinase-Glo or AlphaScreen), Alk; settings: biochemical tyrosine kinase assay
T2 construct: 6×His- or GST-tagged kinase domain fragments of the corresponding RTKs expressed in baculovirus system; host or cells: baculovirus system
How it was run: (§1)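 Luminescence of remaining ATP (Kinase-Glo) or anti-phosphotyrosine AlphaScreen proximity signal served as read-out. Reactions held purified tagged kinase domain, poly(Glu-Tyr) substrate and 10 μM ATP at pH 7.5. IC50 values came from non-linear regression fits.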

[3] = molecular target: T3, Jak2 (Homo sapiens, UniProt O60674); experiment: Tyrosine kinase assay (Kinase-Glo or AlphaScreen), Jak2; settings: biochemical tyrosine kinase assay
T3 construct: 6×His- or GST-tagged kinase domain fragments of the corresponding RTKs expressed in baculovirus system; host or cells: baculovirus system
How it was run: as §1

[4] = molecular target: T4, IGF1R tyrosine kinase (Homo sapiens, UniProt P08069); experiment: IGF1R tyrosine kinase assay (Kinase-Glo ATP depletion or PT66/PT100 AlphaScreen); settings: biochemical tyrosine kinase assay
T4 construct: 6×His- or GST-tagged kinase domain fragments of the corresponding RTKs expressed in baculovirus system; host or cells: baculovirus system
How it was run: as §1

[5] = molecular target: T5, InsR (Homo sapiens, UniProt P06213); experiment: Tyrosine kinase assay (Kinase-Glo or AlphaScreen), InsR; settings: biochemical tyrosine kinase assay
T5 construct: 6×His- or GST-tagged kinase domain fragments of the corresponding RTKs expressed in baculovirus system; host or cells: baculovirus system
How it was run: as §1

[6] = tested on: MM1s; experiment: Cell proliferation inhibition, MTT assay, MM1s; format: cell-based; settings: Homo sapiens, MM1.S, 72 h, MM1S multiple myeloma cells, 3-day proliferation
Text: (§2) IGF1R and other tyrosine kinase inhibitors can inhibit the proliferation of certain cancer cell lines indicating their possible therapeutic utility for treating the corresponding cancer types. Cancer cell lines of interest and control normal lines, including CHO, HEK293, BA/F3, COLO205, PC3, DU145, MCF7, Panc1, ACHN, Hep G2, H460, K562, TT, U87-MG, CAOV-3, SK-MEL5, Karpas 299 and human multiple myeloma cell lines H929, MM1s, MM1r, UTMC2, CPM2, KMS11, My5, KMS12PE, My7, JJN3, KMS18, U266, SKMM2, RPMI-8226 are plated in white, clear-bottomed 384-well cell culture plates at 2500-5000 cells per well and supplied with dilutions of tested compounds After a desired period of time (typically 3 days), the number of viable cells is quantitated by using Cell Titer-Glo Luminescent Cell Viability Assay (Promega), a cell proliferation assay system based on detection of total amount of ATP present as a measure of cell metabolic activity. The plated cells are mixed with the Cell Titer-Glo developing reagent and counted in a luminescence multiwell plate reader according to the standard manufacturer's protocol to generate IC50 curves for cell proliferation inhibition. Results are typically reported as percent of growth (% viability =(OD72h(compound)−ODday0))/(OD72h(no compound)−ODday0). Alternatively, viable cells are quantitated by using the conventional colorimetric MTT assay. The MTT assay is based on the cleavage of the yellow tetrazolium salt MTT to purple formazan crystal by metabolic active cells. The formazan is then solubilized, and the concentration determined by optical density at 570 nm. The cells plated and incubated with a compound as described above are supplemented with the solution of MTT and incubated for 2-3 hours. The growth medium is removed and dimethyl sulfoxide is added into each well to dissolve the formazan. The absorbance is measured on an ELISA plate reader with a test wavelength of 570 nm and a background subtraction wavelength of 630 nm to obtain sample signal (OD570-OD630). […] The results are reported in terms of IC50 value for a particular compound and a cell line in the standard 3-day proliferation assay using Cell Titer-Glo. […] The results are reported in terms of IC50 value for a particular compound and a cell line in the standard 3-day proliferation assay using MTT assay.

[7] = tested on: CPM2; experiment: Cell proliferation inhibition, MTT assay, CPM2; format: cell-based; settings: Homo sapiens, Multiple myeloma cell, 72 h, CPM2 multiple myeloma cells, 3-day proliferation
Text: as §2

[8] = tested on: HEK293 (human normal embryonic kidney); experiment: Cell proliferation inhibition, MTT assay, HEK293; format: cell-based; settings: 72 h, HEK293 cells, 3-day proliferation, read-out: HEK IC50
Text: as §2

[9] = tested on: KMS11; experiment: Cell proliferation inhibition, MTT assay, KMS11; format: cell-based; settings: Homo sapiens, KMS-11, 72 h, KMS11 multiple myeloma cells, 3-day proliferation
Text: as §2

[10] = tested on: CHO (chinese hamster ovary); experiment: Cell proliferation inhibition, MTT assay, CHO; format: cell-based; settings: Cricetulus griseus, 72 h, CHO cells, 3-day proliferation
Text: as §2

[11] = tested on: MM1r; experiment: Cell proliferation inhibition, MTT assay, MM1r; format: cell-based; settings: Homo sapiens, MM.1R, 72 h, MM1R multiple myeloma cells, 3-day proliferation
Text: as §2

[12] = tested on: UTMC2; experiment: Cell proliferation inhibition, MTT assay, UTMC2; format: cell-based; settings: Homo sapiens, 72 h, UTMC2 multiple myeloma cells, 3-day proliferation
Text: as §2

[13] = tested on: H929; experiment: Cell proliferation inhibition, MTT assay, H929; format: cell-based; settings: Homo sapiens, NCI-H929, 72 h, H929 multiple myeloma cells, 3-day proliferation
Text: as §2

[14] = tested on: K562; experiment: Cell proliferation inhibition, Cell Titer-Glo, K562; format: cell-based; settings: Homo sapiens; cell proliferation assay, K562 cells
How it was run: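 K562 cells were seeded at 2500-5000 cells per well in white, clear-bottomed 384-well culture plates and treated with dilutions of test compounds for typically 3 days. Viable cells were quantified with the Cell Titer-Glo Luminescent Cell Viability Assay (Promega), which measures total ATP, read on a luminescence plate reader to derive IC50 values for proliferation inhibition.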

[15] = tested on: HEK293 (human normal embryonic kidney); experiment: Cell proliferation inhibition, Cell Titer-Glo, HEK293; format: cell-based; settings: cell proliferation assay, HEK293 cells, read-out: HEK 293 IC50
Experimental: IGF1R and other tyrosine kinase inhibitors can inhibit the proliferation of certain cancer cell lines indicating their possible therapeutic utility for treating the corresponding cancer types. Cancer cell lines of interest and control normal lines, including CHO, HEK293, BA/F3, MM1, H929, COLO205, PC3, DU145, MCF7, Panc1, ACHN, Hep G2, H460, K562, TT, U87-G, CAOV-3, SK-MEL5, Karpas 299, are plated in white, clear-bottomed 384-well cell culture plates at 2500-5000 cells per well and supplied with dilutions of tested compounds After a desired period of time (typically 3 days), the number of viable cells is quantitated by using Cell Titer-Glo Luminescent Cell Viability Assay (Promega), a cell proliferation assay system based on detection of total amount of ATP present as a measure of cell metabolic activity. The plated cells are mixed with the Cell Titer-Glo developing reagent and counted in a luminescence multiwell plate reader according to the standard manufacturer's protocol to generate IC50 curves for cell proliferation inhibition.
as §2

[16] = tested on: H929 (multiple myeloma); experiment: Cell proliferation inhibition, Cell Titer-Glo, H929; format: cell-based; settings: Homo sapiens, NCI-H929; cell proliferation assay, H929 cells
How it was run: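 Cells seeded at 2500-5000 per well with serially diluted compound for typically 3 days. Viable cells measured by ATP luminescence (Cell Titer-Glo); IC50 from proliferation-inhibition curves.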

T3 sequence (O60674 849-1124 limits assumed, species assumed): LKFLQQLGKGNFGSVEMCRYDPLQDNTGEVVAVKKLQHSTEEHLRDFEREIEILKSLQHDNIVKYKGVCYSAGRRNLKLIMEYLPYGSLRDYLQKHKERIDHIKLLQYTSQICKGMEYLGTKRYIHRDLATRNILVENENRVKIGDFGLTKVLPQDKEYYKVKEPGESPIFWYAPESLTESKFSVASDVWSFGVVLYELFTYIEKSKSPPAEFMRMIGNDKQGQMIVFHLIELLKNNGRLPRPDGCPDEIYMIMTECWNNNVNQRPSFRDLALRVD
T1 sequence (P04629 510-781 limits assumed, species assumed): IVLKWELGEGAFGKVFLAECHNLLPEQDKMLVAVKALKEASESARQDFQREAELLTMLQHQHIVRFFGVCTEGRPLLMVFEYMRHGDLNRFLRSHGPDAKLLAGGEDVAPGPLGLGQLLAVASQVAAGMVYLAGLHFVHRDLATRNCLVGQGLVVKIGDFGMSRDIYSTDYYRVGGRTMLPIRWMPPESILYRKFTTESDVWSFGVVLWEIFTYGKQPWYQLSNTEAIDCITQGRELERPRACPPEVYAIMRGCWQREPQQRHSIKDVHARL
T5 sequence (P06213 1023-1298 limits assumed, species assumed): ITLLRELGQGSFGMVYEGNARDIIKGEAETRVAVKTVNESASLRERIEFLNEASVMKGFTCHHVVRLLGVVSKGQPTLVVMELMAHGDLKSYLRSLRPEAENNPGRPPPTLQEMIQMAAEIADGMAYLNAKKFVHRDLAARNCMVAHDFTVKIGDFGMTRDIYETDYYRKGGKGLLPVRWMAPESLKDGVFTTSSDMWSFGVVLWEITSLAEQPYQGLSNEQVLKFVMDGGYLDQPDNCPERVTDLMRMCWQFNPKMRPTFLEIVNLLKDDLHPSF
T4 sequence (P08069 999-1274 limits assumed): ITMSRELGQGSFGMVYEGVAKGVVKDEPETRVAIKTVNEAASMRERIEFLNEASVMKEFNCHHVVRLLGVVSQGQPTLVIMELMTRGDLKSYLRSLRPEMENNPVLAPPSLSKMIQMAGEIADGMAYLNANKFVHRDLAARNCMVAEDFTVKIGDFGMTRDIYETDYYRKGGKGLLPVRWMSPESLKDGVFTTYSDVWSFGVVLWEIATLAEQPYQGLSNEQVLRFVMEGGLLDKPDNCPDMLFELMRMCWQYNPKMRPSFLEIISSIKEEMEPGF
T2 sequence (Q9UM73 1116-1392 limits assumed, species assumed): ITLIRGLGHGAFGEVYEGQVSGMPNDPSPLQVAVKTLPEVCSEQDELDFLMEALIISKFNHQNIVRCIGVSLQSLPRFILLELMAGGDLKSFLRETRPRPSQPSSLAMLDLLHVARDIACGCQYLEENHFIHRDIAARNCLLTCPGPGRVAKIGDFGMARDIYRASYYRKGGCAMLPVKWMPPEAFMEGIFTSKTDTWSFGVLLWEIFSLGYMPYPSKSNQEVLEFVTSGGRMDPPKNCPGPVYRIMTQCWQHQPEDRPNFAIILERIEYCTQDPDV

| IC50 [1] | IC50 [2] | IC50 [3] | IC50 [4] | IC50 [5] | IC50 [6] | IC50 [11] | IC50 [13] | IC50 [14] | IC50 [16] | Structure (SMILES) | IC50 [7] | IC50 [8] | IC50 [9] | IC50 [10] | IC50 [12] | IC50 [15] |
| --- | --- | --- | --- | --- | --- | --- | --- | --- | --- | --- | --- | --- | --- | --- | --- | --- |
| < 500 nM | 500 to 5000 nM | < 500 nM | < 500 nM | < 500 nM |  |  |  |  |  | Cc1c(Cl)cccc1OC[C@H](O)CNc1cc[nH]c(=O)c1-c1nc2cc3c(cc2[nH]1)C(=O)N(C1CCN(C)CC1)C3 [compound 133] |  |  |  |  |  |  |
|  |  |  |  |  | < 500 nM | 500 to 1000 nM | < 500 nM |  |  | CN1CCC(N2Cc3cc4[nH]c(-c5c(NCC(=O)COc6ccccc6Br)cc[nH]c5=O)nc4cc3C2=O)CC1 [drawing 841] | 1000 to 5000 nM | ≥ 20000 nM | 1000 to 5000 nM | ≥ 20000 nM | < 500 nM |  |
|  |  |  |  |  | 1000 to 5000 nM | 1000 to 5000 nM | 500 to 1000 nM |  |  | Cc1ccc(OCC(=O)CNc2cc[nH]c(=O)c2-c2nc3cc4c(cc3[nH]2)CN(CCCN2CCCC2)C4=O)c(C)c1 [drawing 840] | 5000 to 20000 nM | ≥ 20000 nM | 5000 to 20000 nM | ≥ 20000 nM | 500 to 1000 nM |  |
| < 500 nM | < 500 nM | 500 to 5000 nM | < 500 nM | < 500 nM |  |  |  | > 15000 nM | 5000 to 15000 nM | CN1CCC(N2Cc3cc4nc(-c5c(NC[C@@H](O)c6cccc(Cl)c6)cc[nH]c5=O)[nH]c4cc3C2=O)CC1 [compound 16] |  |  |  |  |  | 5000 to 15000 nM |
